# “And” between values parts separate entries of the source, which are not always exact repeats. Equal values may be shown once. “Also recorded” adds a separate entry of the source. Read-outs that look alike come from different tables or passages of the source.
# Tests used:
# EOC13 cells [1] = test system: EOC13 cells
# P2X7 [2] = target: T1, P2X7 (Mus musculus, UniProt Q9Z1M0); experiment: Fixed-time ethidium+ uptake assay (flow cytometry) in EOC13 microglial cells; format: cell-based, murine; conditions: for impairment of ATP-induced ethidium+ uptake: 15 min preincubation
# T1 construct: endogenous in cells; host or cells: EOC13 murine microglial cell line
# T1 sequence (Q9Z1M0 1-595): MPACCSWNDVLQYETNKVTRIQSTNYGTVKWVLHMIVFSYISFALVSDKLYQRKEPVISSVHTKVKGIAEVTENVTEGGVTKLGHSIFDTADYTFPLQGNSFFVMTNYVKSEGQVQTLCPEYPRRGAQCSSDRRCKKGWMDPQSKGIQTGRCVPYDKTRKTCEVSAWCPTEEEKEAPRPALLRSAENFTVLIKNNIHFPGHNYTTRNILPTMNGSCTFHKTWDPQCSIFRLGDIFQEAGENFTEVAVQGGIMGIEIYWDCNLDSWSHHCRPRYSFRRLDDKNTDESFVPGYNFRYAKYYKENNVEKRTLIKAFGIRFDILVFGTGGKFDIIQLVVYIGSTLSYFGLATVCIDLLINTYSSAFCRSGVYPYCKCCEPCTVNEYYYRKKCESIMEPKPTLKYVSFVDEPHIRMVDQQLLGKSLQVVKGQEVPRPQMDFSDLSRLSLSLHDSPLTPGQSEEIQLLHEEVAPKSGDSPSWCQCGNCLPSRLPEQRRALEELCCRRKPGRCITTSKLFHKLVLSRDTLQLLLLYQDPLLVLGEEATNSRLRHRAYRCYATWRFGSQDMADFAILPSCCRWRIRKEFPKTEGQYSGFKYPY
# P2X7 [3] = target: T1, P2X7; experiment: Fixed-time ethidium+ uptake assay (flow cytometry) in J774 macrophage cells; format: cell-based, murine; conditions: for ethidium+ uptake compared to absence of nucleotide: 5 min
# EOC13 cells [4] = experiment: Cell viability assessed by forward and side scatter (gated viable cells); format: cell-based, murine; conditions: for reduction of the amount of gated viable cells: ethidium+ uptake assay; for cell viability (forward and side scatter): 10 μM
# EOC13 cells [5] = experiment: cells; format: cell-based
# Method: (§1) Following the 24 h incubations, cells were harvested from wells using 0.05% trypsin (5 min, 37°C) and washed once with Annexin-V binding medium (NaCl medium containing 5 mM CaCl2). Cells were then incubated with Annexin-V binding medium containing Annexin-V-Fluorescein and 7AAD at room temperature protected from light for 15 min. […] Quadrant markers were used to determine the percentage of Annexin-V^+/7AAD^−, Annexin-V^−/7AAD^+, and Annexin-V^+/7AAD^+ cells. In some experiments, cells prior to harvesting were visualised by DIC imaging to examine cell morphology, and DIC images captured as outlined in Section 2.8.
# EOC13 cells [6] = experiment: Cell morphology by DIC imaging; format: cell-based, murine
# Method: as §1
# EOC13 cells [7] = experiment: cells; conditions: Mus musculus, read-out: inhibition of ATP-induced ROS formation, EOC13 cells, 40 mM NAC, 30 min preincubation, 1.4 mM ATP, NaCl medium
# EOC13 cells [8] = experiment: NO formation assay (DAF-FM DA, flow cytometry) in EOC13 cells; format: cell-based, murine
# Source text: The medium was removed, and the cells were washed once.
# P2X7 [9] = target: T1, P2X7; experiment: Fixed-time YO-PRO-1 2+ uptake assay (flow cytometry) in EOC13 microglial cells; format: cell-based, murine; conditions: 10 μM
# P2X7 [10] = test system: P2X7; set-up: method as in PMID 18657557; conditions: read-out: half maximal effective concentration (EC50) of ATP for P2X7 activation; cited from earlier work
# [11] = read-out: IC50 for impairment of 1 mM ATP-induced ethidium+ uptake, J774 cells, NaCl medium, 15 min preincubation, 1 mM ATP 5 min, 37°C
# [12] = EOC13 cells, antagonist 30 μM, 1 mM ATP
compound,measurement,setting,value
"c1ccc2c(c1)[I+]c1ccccc1-2 [DPI, diphenyleneiodonium]",cell death on preincubation,"EOC13 cells [1]; 5–40 μM DPI, 30 min preincubation, data not shown",high amounts of cell death; also recorded: induced the death of EOC13 microglia
Clc1cccc(-c2nnnn2Cc2cccnc2)c1Cl [A438079],impairment of ATP-induced ethidium+ uptake,"P2X7 [2]; EOC13 cells, antagonist 100 μM, 1 mM ATP",90 ± 1%
same,inhibition of ATP-induced ethidium+ uptake,"P2X7 [3]; J774 cells, antagonist 100 μM, 1 mM ATP",completely inhibited
same,IC50,P2X7 [3]; [11],7.9 ± 0.4 µM
2′(3′)-O-(4-benzoylbenzoyl) ATP [BzATP],ethidium+ uptake compared to absence of nucleotide,"P2X7 [2]; EOC13 cells, 0.1 mM BzATP, 5 min",induce significant ethidium^+ uptake
same,ethidium+ uptake compared to absence of nucleotide,"P2X7 [3]; J774 cells, 0.1 mM BzATP",induced significant ethidium^+ uptake
"CC(=O)N[C@@H](CS)C(=O)O [NAC, N-acetyl-L-cysteine]",reduction of the amount of gated viable cells,"EOC13 cells [4]; incubation with 40 mM NAC and ATP together, not either compound alone",~ 40%
same,inhibition at 40000 µM,"P2X7 [2]; P2X7, read-out: inhibition of ATP-induced ethidium+ uptake (pore formation)",30 ± 2%
same,effect on percentage of ATP-induced cell death,"EOC13 cells [5]; EOC13 cells, 40 mM NAC, 75 and 30 min preincubation followed by 15 and 60 min 2 mM ATP, respectively",had no effect
same,inhibition at 40000 µM,"EOC13 cells [5]; Mus musculus, read-out: inhibition of ATP-induced cell death",99 ± 6%
same,effect on ATP-associated morphological changes (DIC),"EOC13 cells [6]; 40 mM NAC 90 min, 2 mM ATP final 45 min, then 24 h",prevented the morphological changes associated with ATP incubation
same,effect on cell morphology (DIC),"EOC13 cells [6]; ROS assay conditions, 40 mM NAC with or without 1.4 mM ATP",not altered by NAC
same,"effect on cell morphology (DIC), NAC alone","EOC13 cells [6]; cell death assay conditions, 40 mM NAC 90 min, then 24 h",no effect on cell morphology
same,inhibition at 40000 µM,EOC13 cells [7],73.7 ± 0.3%
same,inhibition of ATP-induced ROS formation,"EOC13 cells [1]; 40 mM NAC, 30 min preincubation, 1.4 mM ATP, NaCl medium",74%
"CCOc1ccc(Nc2ccc(/C(=C3C=C/C(=[N+](/CC)Cc4cccc(S(=O)(=O)[O-])c4)C=C/3C)c3ccc(N(CC)Cc4cccc(S(=O)(=O)O)c4)cc3C)cc2)cc1 [BBG, Brilliant Blue G]",impairment of ATP-induced ethidium+ uptake,P2X7 [2]; [12],75 ± 2%
same,IC50,P2X7 [3],1.8 ± 0.2 µM
same,type of antagonism at the ATP concentration used,"P2X7 [3]; J774 cells, 1 mM ATP",partial antagonists
O=C(CC12CC3CC(CC(C3)C1)C2)Nc1cccc2nc(NCCNCCO)ccc12 [AZ10606120],inhibition of ATP-induced NO formation,"EOC13 cells [8]; 10 μM, 15 min preincubation, 1.4 mM ATP",82 ± 11%
same,effect on basal NO formation,"EOC13 cells [8]; 10 μM, absence of ATP",did not significantly alter
same,cell viability (forward and side scatter),EOC13 cells [4]; NO assay,did not significantly alter
same,cell viability (forward and side scatter),EOC13 cells [4]; ROS assay,did not significantly alter
same,inhibition of ATP-induced ethidium+ uptake,"P2X7 [3]; J774 cells, antagonist 10 μM, 1 mM ATP",completely inhibited
same,IC50,P2X7 [3]; [11],1 ± 0.1 µM
same,inhibition of ATP-induced ROS formation,"EOC13 cells [1]; 10 μM, 15 min preincubation, 2 mM ATP, NaCl medium with 1 mM Ca2+",complete inhibition; also recorded: completely impaired
same,inhibition of ATP-induced ROS formation,"EOC13 cells [1]; 10 μM, 15 min preincubation, 2 mM ATP, complete DMEM medium",completely inhibited
same,effect on basal ROS formation,"EOC13 cells [1]; 10 μM, absence of ATP",did not significantly alter
same,inhibition of ATP-induced YO-PRO-1 2+ uptake,"P2X7 [9]; 15 min preincubation, 1 mM ATP",complete inhibition
same,effect on basal YO-PRO-1 2+ uptake,P2X7 [9]; absence of ATP,did not significantly alter
O=C1CSC(=O)N1C(CCc1ccncc1)COc1ccc(-c2cccc([N+](=O)[O-])c2)cc1 (centres unmarked) [AZ11645373],reduction of the amount of gated viable cells,EOC13 cells [4]; 30 μM,~ 30%
same,effect on basal ethidium+ uptake,"P2X7 [2]; EOC13 cells, absence of ATP, antagonist at concentration used (10-100 μM)",significantly altered
same,impairment of ATP-induced ethidium+ uptake,P2X7 [2]; [12],99 ± 1%
same,type of antagonism at the ATP concentration used,"P2X7 [3]; J774 cells, 1 mM ATP",partial antagonists
same,IC50,P2X7 [3]; [11],1.5 ± 0.1 µM
"Nc1ncnc2c1ncn2[C@@H]1O[C@H](COP(=O)(O)OP(=O)(O)OP(=O)(O)O)[C@@H](O)[C@H]1O [ATP, adenosine-5′-triphosphate]",NO formation compared to absence of ATP,"EOC13 cells [8]; 1.4 mM ATP, 15 min, NaCl medium",induced significant NO formation
same,ethidium+ uptake compared to absence of nucleotide,"P2X7 [2]; EOC13 cells, 1 mM ATP, 5 min",induce significant ethidium^+ uptake
same,EC50,"P2X7 [2]; EOC13 cells, NaCl medium, 5 min, 37°C, read-out: EC50 for induction of ethidium+ uptake",~130 µM and 130 µM
same,ethidium+ uptake compared to absence of nucleotide,"P2X7 [3]; J774 cells, 1 mM ATP",induced significant ethidium^+ uptake
same,duration of transient ATP incubation giving significant cell death,"EOC13 cells [5]; EOC13 cells, 2 mM ATP, then fresh medium 24 h",30 or 60 min but not 15 min and 30–60 but not 15 min
same,ATP concentrations giving significantly higher total cell death than absence of ATP,"EOC13 cells [5]; EOC13 cells, complete DMEM medium, 24 h",2 or 3 mM ATP but not 1 mM ATP and 2 or 3 but not 1 mM ATP
same,ROS formation compared to absence of ATP,"EOC13 cells [1]; 575 μM ATP4- (1.4 or 2 mM ATP), NaCl medium in absence and presence of 1 mM Ca2+",induced significant ROS formation
same,ROS formation compared to absence of ATP,"EOC13 cells [1]; 1.4 mM ATP, NaCl and KCl media",induced significant ROS formation
same,ROS formation compared to absence of ATP,"EOC13 cells [1]; 1.4 mM ATP, NaCl medium, 15 min (NAC experiment control)",induced significant ROS formation
same,ROS formation compared to absence of ATP,"EOC13 cells [1]; 1.4 mM ATP, absence and presence of 100 μM EGTA",significant but similar amounts of ROS formation
same,MFI of ROS formation,"EOC13 cells [1]; 2 mM ATP, NaCl medium with 1 mM Ca2+, 15 min, absence of ATP 5.18 ± 0.06",16.3 ± 0.6
same,ATP concentrations inducing significant ROS formation,"EOC13 cells [1]; complete DMEM medium, 15 min",2 or 3 but not 1 mM ATP
same,EC50,P2X7 [10],100 to 300 µM
